The values that follow come from ChEMBL document CHEMBL5154694, “Fascaplysin derivatives binding to DNA via unique cationic five-ring coplanar backbone showed potent antimicrobial/antibiofilm activity against MRSA in vitro and in vivo” (Eur J Med Chem, 2022).

Data set [1] in a line: Cytotoxicity against mouse RAW264.7 cells assessed as cell survival at 12.5 ug/ml incubated for 24 hrs by CCK-8 assay. The format is toxicity, cell-based. The conditions noted are these: at 12.5 µg/mL, read-out: Activity.
Data set [2] in a line: Toxicity in female ICR peritonitis mouse model infected with methicillin-resistant Staphylococcus aureus ATCC 4330 assessed as kidney damage at 10 mg/kg, ip. The class given is organism-based. The conditions noted are these: in vivo.
Data set [3] has as its system Staphylococcus aureus. In words: Antimicrobial activity against methicillin-resistant Staphylococcus aureus ATCC 4330 infected in female ICR peritonitis mouse model assessed as survival time of mouse at 10 mg/kg, ip. The class given is functional.
A short description of data set [4]: Hemolytic activity in mouse erythrocytes assessed as hemolysis at 12.5 ug/ml relative to control. The class given is toxicity, cell-based, Erythrocyte. The conditions noted are these: at 12.5 µg/mL, read-out: Activity.
Data set [5] in a line: Cytotoxicity against mouse RAW264.7 cells assessed as cell survival at 50 ug/ml incubated for 24 hrs by CCK-8 assay. The format is toxicity, cell-based. Conditions: at 50 µg/mL, read-out: Activity. Background: Tetrazolium dyes change colour on reduction, which living cells bring about.
Data set [6] concerns Staphylococcus aureus. In words: Bactericidal activity against methicillin-resistant Staphylococcus aureus ATCC 4330 assessed as reduction in bacterial counts at 2X MIC within 0.5 hrs by time-kill kinetic assay. The class given is functional.
A short description of data set [7]: Toxicity in female ICR peritonitis mouse model infected with methicillin-resistant Staphylococcus aureus ATCC 4330 assessed as liver damage at 10 mg/kg, ip. The class given is organism-based. The conditions noted are these: in vivo.
Data set [8] has as its system Staphylococcus aureus. In words: Antibiofilm activity against methicillin-resistant Staphylococcus aureus ATCC 4330 assessed as fold change in downregulation of AgrA mRNA expression at 4X MIC after 2 hrs by qRT-PCR assay. The format is functional. (Real-time PCR tracks product formation cycle by cycle.)
Data set [9] deals with Staphylococcus aureus. In words: Antibacterial activity against methicillin-resistant Staphylococcus aureus ATCC 4330 after 16 to 18 hrs by microbroth dilution method. The format is functional. Conditions: time 16-18 hrs. For orientation: In broth dilution the organism is exposed to a series of concentrations in liquid medium.
Data set [10] concerns Staphylococcus aureus. In words: Bactericidal activity against methicillin-resistant Staphylococcus aureus ATCC 4330 assessed as reduction in bacterial counts at 1 to 4X MIC within 24 hrs by time-kill kinetic assay. The class given is functional.
The subject of data set [11] is Staphylococcus aureus. In words: Antibiofilm activity against methicillin-resistant Staphylococcus aureus ATCC 4330 assessed as inhibition of biofilm formation at 6.25 ug/ml after 24 hrs by crystal violet staining based assay relative to control. The format is functional.
In data set [12] the test system is Staphylococcus aureus. In words: Antimicrobial activity against methicillin-resistant Staphylococcus aureus ATCC 4330 infected in female ICR peritonitis mouse model assessed as increase in survival rate of mouse at 10 mg/kg, ip. The class given is functional.
Data set [13] can be described thus: Toxicity in female ICR peritonitis mouse model infected with methicillin-resistant Staphylococcus aureus ATCC 4330 assessed as lung damage at 10 mg/kg, ip. Conditions: in vivo. The format is organism-based.
A short description of data set [14]: Cytotoxicity against mouse RAW264.7 cells assessed as cell survival at 25 ug/ml incubated for 24 hrs by CCK-8 assay. The class given is toxicity, cell-based. Conditions: at 25 µg/mL, read-out: Activity.
In data set [15] the test system is Staphylococcus aureus. In words: Antimicrobial activity against methicillin-resistant Staphylococcus aureus ATCC 4330 infected in female ICR peritonitis mouse model assessed as reduction in bacteria in blood at 10 mg/kg, ip. The format is functional. Details: scale not given: the % may be the effect or the level left.
Data set [16] is described as follows: Stability in plasma (unknown origin). The format is ADME, cell-free. The conditions noted are these: unidentified.
A short description of data set [17]: Cmax in rat plasma at 3 mg/kg, iv. Details: dose 3 mg/kg, route iv. The format is ADME, organism-based.
Data set [18] can be described thus: Cmax in rat plasma at 15 mg/kg, IG. Details: dose 15 mg/kg, route ig. The conditions noted are these: po. The class given is ADME, organism-based.

Molecules are shown by their SMILES.

As for `Cc1ccc2[nH]c3c4[n+](ccc3c2c1)-c1ccccc1C4=O.[Br-]`, the viability at 24 h, 12.5 ug/ml in data set [1] is 17.7%. Moreover, the Activity result in [2] is “Non-Toxic”; in the data set with Staphylococcus aureus [6] it was 1.7 log10CFU/ml; in data set [7] it was “Non-Toxic”; in the data set on Staphylococcus aureus [10] it was 2 log10CFU/ml; in the data set on Staphylococcus aureus [12], 20%; in data set [13], “Non-Toxic”. Moreover, the Activity with Staphylococcus aureus [15] is recorded as 92%. Besides, the Survival in the data set with Staphylococcus aureus [3] stood at 2 days. The hemolysis at 12.5 ug/ml in data set [4] was 0%. The viability at 24 h, 50 ug/ml in data set [5] was found to be 69.8%. Besides, the “fold change (FC)” value with Staphylococcus aureus [8] turned out to be 0.71. The molecule also had an MIC against Staphylococcus aureus [9] of 0.195 µg/mL. Moreover, in the data set on Staphylococcus aureus [11], the inhibition at 6.25 µg/mL was found to be 65.4%. Further, in data set [14], the viability at 24 h, 25 ug/ml was determined as 56.3%.
`O=C1c2ccccc2-[n+]2ccc3c([nH]c4ccccc43)c21.[Cl-]` [FASCAPLYSIN CHLORIDE] returned a Stability in data set [16] of 94.9%. Moreover, the Activity amounted to 0 log10CFU/ml with Staphylococcus aureus [6] and 2 log10CFU/ml in the data set on Staphylococcus aureus [10]. This molecule also gave an MIC against Staphylococcus aureus [9] of 0.78 µg/mL. The Cmax in data set [17] came to 414 ng/mL; in data set [18] it was 65.2 ng/mL.

What is called MIC is the smallest concentration in the dilution series that meets the test's criterion for growth inhibition. As usually defined, the inhibition is the share of the control response that was lost under treatment. For orientation: Cmax means the peak of the concentration-time curve.
